target: T1, human GPR68 (Homo sapiens, UniProt Q15743); assay: GPR68 Biochemical Assay (Promega GloSensor cAMP assay, GPR68 antagonism); format: cell-based; conditions: HEK293T cells transiently expressing hGPR68, antagonism of pH 5.5 stimulated cAMP, 15 min, read-out: hGPR68 IC50
T1 construct: encoding full-length human GPR68 (uniprot ID: Q15743); expressed in transfected cells; host or cells: HEK293T
How it was run: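 Readout is GloSensor cAMP luminescence after 15 min at room temperature, normalised between pH 5.5 stimulation and pH 8.0 minimum controls; IC50 fitted sigmoidally. Test compounds, up to 50 μM final (9-point half-log, 0.5% DMSO), were co-added with pH 5.5 buffer to HEK293T cells transiently expressing full-length human GPR68 plus GloSensor.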

T1 sequence (Q15743 whole entry): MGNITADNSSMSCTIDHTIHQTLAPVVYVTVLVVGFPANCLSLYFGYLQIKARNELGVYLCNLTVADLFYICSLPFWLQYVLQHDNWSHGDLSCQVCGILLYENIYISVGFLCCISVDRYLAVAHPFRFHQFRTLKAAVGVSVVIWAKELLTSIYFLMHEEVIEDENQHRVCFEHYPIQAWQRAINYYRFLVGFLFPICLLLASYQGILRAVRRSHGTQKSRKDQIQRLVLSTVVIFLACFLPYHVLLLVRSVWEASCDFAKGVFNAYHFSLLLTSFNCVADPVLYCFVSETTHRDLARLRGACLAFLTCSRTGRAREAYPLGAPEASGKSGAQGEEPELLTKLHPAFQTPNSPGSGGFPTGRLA

| Compound | IC50 [nM] |
| --- | --- |
| COCc1nn2c(C(=O)Nc3cnc4c(F)cccc4c3)ccnc2c1C(N)=O [Compound 117, N7-(8-fluoro-3-quinolyl)-2-(methoxymethyl)pyrazolo[1,5-a]pyrimidine-3,7-dicarboxamide] | < 50 |
| COCc1nc2c(C(=O)NC3Cc4cscc4C3)ccnn2c1C(N)=O [Compound 105, N8-(5,6-dihydro-4H-cyclopenta[c]thiophen-5-yl)-2-(methoxymethyl)imidazo[1,2-b]pyridazine-3,8-dicarboxamide] | < 50 |
| COCc1nn2c(C(=O)N[C@H]3CC(C)(C)c4ccccc43)ccnc2c1C(N)=O [Compound 198, 2-(methoxymethyl)-N7-[(1S)-3,3-dimethylindan-1-yl]pyrazolo[1,5-a]pyrimidine-3,7-dicarboxamide] | 50 to 500 |
| COCc1nn2c(C(=O)NC3Cc4cccc(F)c4C3)ccnc2c1C(N)=O (centres unmarked) [Compound 91, N7-(4-fluoroindan-2-yl)-2-(methoxymethyl)pyrazolo[1,5-a]pyrimidine-3,7-dicarboxamide] | < 50 |
| COCc1nn2c(C(=O)NC3COc4ccccc4C3)ccnc2c1C(N)=O (centres unmarked) [Compound 78, N7-chroman-3-yl-2-(methoxymethyl)pyrazolo[1,5-a]pyrimidine-3,7-dicarboxamide] | 50 to 500 |
| COCc1nn2c(C(=O)NC3CCC(F)(F)CC3F)ccnc2c1C(N)=O (mixture of isomers) [Compound 154, 2-(methoxymethyl)-N7-(2,4,4-trifluorocyclohexyl)pyrazolo[1,5-a]pyrimidine-3,7-dicarboxamide] | 50 to 500 |
| COCc1nn2c(C(=O)NC3COc4ccc(F)cc4C3)ccnc2c1C(N)=O (centres unmarked) [Compound 196, N7-(6-fluorochroman-3-yl)-2-(methoxymethyl)pyrazolo[1,5-a]pyrimidine-3,7-dicarboxamide] | < 50 |
| COCc1nc2c(C(=O)NC3CCC(F)(F)CC3)ncnn2c1C(N)=O [Compound 212, N4-(4,4-difluorocyclohexyl)-6-(methoxymethyl)imidazo[2,1-f][1,2,4]triazine-4,7-dicarboxamide] | 50 to 500 |
| Cc1cc(C(=O)NC2CCS(=O)(=O)c3ccccc32)n2nc(C3CC3)c(C(N)=O)c2n1 (centres unmarked) [Compound 242, 2-cyclopropyl-N7-(1,1-dioxo-3,4-dihydro-2H-thiochromen-4-yl)-5-methyl-pyrazolo[1,5-a]pyrimidine-3,7-dicarboxamide] | < 50 |
| CN1CC(c2nn3c(C(=O)NC4Cc5ccccc5C4)ccnc3c2C(N)=O)C1 [Compound 24, N7-indan-2-yl-2-(1-methylazetidin-3-yl)pyrazolo[1,5-a]pyrimidine-3,7-dicarboxamide] | 50000 to 100000 |
| NC(=O)c1c(C2CC2)nc2c(C(=O)N[C@H]3CCOc4cc(F)ccc43)ccnn12 [Compound 211, 2-cyclopropyl-N8-[(4S)-7-fluorochroman-4-yl]imidazo[1,2-b]pyridazine-3,8-dicarboxamide] | < 50 |
| COCc1nn2c(C(=O)N[C@@H]3Cc4ccccc4[C@@H]3C)ccnc2c1C(N)=O [Compound 201] | < 50 |
| NC(=O)c1c(C2CC2)nc2c(C(=O)NC3Cc4cccnc4C3)ccnn12 (centres unmarked) [Compound 163, 2-cyclopropyl-N8-(6,7-dihydro-5H-cyclopenta[b]pyridin-6-yl) imidazo[1,2-b]pyridazine-3,8-dicarboxamide] | < 50 |
| NC(=O)c1c(C2CC2)nn2c(C(=O)NC3CCS(=O)(=O)c4ccccc43)ccnc12 (centres unmarked) [Compound 229, 2-cyclopropyl-N7-(1,1-dioxo-3,4-dihydro-2H-thiochromen-4-yl)pyrazolo[1,5-a]pyrimidine-3,7-dicarboxamide] | < 50 |
| COCc1nn2c(C(=O)NCC3CC3)ccnc2c1C(N)=O [Compound 81, N7-(cyclopropylmethyl)-2-(methoxymethyl)pyrazolo[1,5-a]pyrimidine-3,7-dicarboxamide] | 50 to 500 |
| CNCc1nn2c(C(=O)NC3Cc4ccccc4C3)ccnc2c1C(N)=O [Compound 30, N7-indan-2-yl-2-(methylaminomethyl)pyrazolo[1,5-a]pyrimidine-3,7-dicarboxamide] | 500 to 5000 |
| NC(=O)c1c(-c2ccccc2F)nn2c(C(=O)NC3Cc4ccccc4C3)cccc12 [Compound 36, 2-(2-fluorophenyl)-N7-indan-2-yl-pyrazolo[1,5-a]pyridine-3,7-dicarboxamide] | 500 to 5000 |
| COCc1nn2c(C(=O)NC3(c4ccc(F)cc4)CC3)ccnc2c1C(N)=O [Compound 127, N7-[1-(4-fluorophenyl)cyclopropyl]-2-(methoxymethyl)pyrazolo[1,5-a]pyrimidine-3,7-dicarboxamide] | 50 to 500 |

| Compound | IC50 [nM] |
| --- | --- |
| NC(=O)c1cnn2c(C(=O)NC3CNc4ccccc4C3)ccnc12 (centres unmarked) [Compound 5, N7-(1,2,3,4-tetrahydroquinolin-3-yl)pyrazolo[1,5-a]pyrimidine-3,7-dicarboxamide] | 500 to 5000 |
| NC(=O)c1c(-c2cccnn2)nn2c(C(=O)NC3Cc4ccccc4C3)ccnc12 [Compound 22, N7-indan-2-yl-2-pyridazin-3-yl-pyrazolo[1,5-a]pyrimidine-3,7-dicarboxamide] | 500 to 5000 |
| NC(=O)c1c(C2CC2)nc2c(C(=O)NC3CCC(F)(F)CC3)ccnn12 [Compound 150, 2-cyclopropyl-N8-(4,4-difluorocyclohexyl)imidazo[1,2-b]pyridazine-3,8-dicarboxamide] | < 50 |
| COCc1nc2c(C(=O)NC3CC(F)(F)C3)ccnn2c1C(N)=O [Compound 54, N8-(3,3-difluorocyclobutyl)-2-(methoxymethyl)imidazo[1,2-b]pyridazine-3,8-dicarboxamide] | < 50 |
| COCc1nn2c(C(=O)NC3(C)Cc4ccccc4C3)ccnc2c1C(N)=O [Compound 121, 2-(methoxymethyl)-N7-(2-methylindan-2-yl)pyrazolo[1,5-a]pyrimidine-3,7-dicarboxamide] | 50 to 500 |
| COCc1nc2c(C(=O)NC3Cc4cc(F)cc(F)c4C3)ccnn2c1C(N)=O (centres unmarked) [Compound 164, N8-(4,6-difluoroindan-2-yl)-2-(methoxymethyl)imidazo[1,2-b]pyridazine-3,8-dicarboxamide] | < 50 |
| NC(=O)c1c(C2CC2)nn2c(C(=O)NC3Cc4ccccc43)ccnc12 (centres unmarked) [Compound 138, N7-(7-bicyclo[4.2.0]octa-1,3,5-trienyl)-2-cyclopropyl-pyrazolo[1,5-a]pyrimidine-3,7-dicarboxamide] | < 50 |
| NC(=O)c1c(-c2ncco2)nn2c(C(=O)NC3CC(F)(F)C3)ccnc12 [Compound 25, N7-(3,3-difluorocyclobutyl)-2-oxazol-2-yl-pyrazolo[1,5-a]pyrimidine-3,7-dicarboxamide] | 500 to 5000 |
| COCc1nn2c(C(=O)NC3CCc4ncsc4C3)ccnc2c1C(N)=O (centres unmarked) [Compound 190, 2-(methoxymethyl)-N7-(4,5,6,7-tetrahydro-1,3-benzothiazol-6-yl)pyrazolo[1,5-a]pyrimidine-3,7-dicarboxamide] | 50 to 500 |
| COCc1nn2c(C(=O)NC3CC(F)(F)c4ccccc43)cc(C)nc2c1C(N)=O (centres unmarked) [Compound 232, N7-(3,3-difluoroindan-1-yl)-2-(methoxymethyl)-5-methyl-pyrazolo[1,5-a]pyrimidine-3,7-dicarboxamide] | < 50 |
| NC(=O)c1c(CO)nn2c(C(=O)NC3Cc4ccccc4C3)ccnc12 [Compound 204, 2-(hydroxymethyl)-N7-indan-2-yl-pyrazolo[1,5-a]pyrimidine-3,7-dicarboxamide] | 50 to 500 |
| Cc1cc(C(=O)NC2CC(F)(F)C2)n2nc(C)c(C(N)=O)c2n1 [Compound 42, N7-(3,3-difluorocyclobutyl)-2,5-dimethyl-pyrazolo[1,5-a]pyrimidine-3,7-dicarboxamide] | 50 to 500 |
| COCc1nn2c(C(=O)NC3CC(F)(F)c4ccc(F)cc43)ccnc2c1C(N)=O (centres unmarked) [Compound 237, 2-(Methoxymethyl)-N7-(3,3,6-trifluoroindan-1-yl)pyrazolo[1,5-a]pyrimidine-3,7-dicarboxamide] | < 50 |
| COCc1nn2c(C(=O)NC3Cc4ccc(Cl)cc4C3)ccnc2c1C(N)=O (centres unmarked) [Compound 87, N7-(5-chloroindan-2-yl)-2-(methoxymethyl)pyrazolo[1,5-a]pyrimidine-3,7-dicarboxamide] | < 50 |
| NC(=O)c1c(C2CC2)nn2c(C(=O)N[C@H]3CCS(=O)(=O)c4ccccc43)ccnc12 [Compound 236, 2-cyclopropyl-N7-[(4S)-1,1-dioxo-3,4-dihydro-2H-thiochromen-4-yl]pyrazolo[1,5-a]pyrimidine-3,7-dicarboxamide] | < 50 |
| COCc1nn2c(C(=O)NC3COc4cc(F)cc(F)c4C3)ccnc2c1C(N)=O (centres unmarked) [Compound 185, N7-(5,7-difluorochroman-3-yl)-2-(methoxymethyl)pyrazolo[1,5-a]pyrimidine-3,7-dicarboxamide] | 50 to 500 |
| COCc1nn2c(C(=O)N[C@H]3COc4c3ccc(F)c4F)ccnc2c1C(N)=O [Compound 119, 2-(methoxymethyl)-N7-[(3R)-6,7-difluoro-2,3-dihydrobenzofuran-3-yl]pyrazolo[1,5-a]pyrimidine-3,7-dicarboxamide] | < 50 |

same assay, conditions: hGPR68 IC50, HEK293T cells transiently expressing hGPR68, antagonism of pH 5.5 stimulated cAMP, 15 min

| Compound | IC50 [nM] |
| --- | --- |
| CC(C)(O)c1nn2c(C(=O)NC3CC(F)(F)C3)ccnc2c1C(N)=O [Compound 213, N7-(3,3-difluorocyclobutyl)-2-(1-hydroxy-1-methyl-ethyl)pyrazolo[1,5-a]pyrimidine-3,7-dicarboxamide] | 50 to 500 |
| NC(=O)c1c(-c2ncco2)nn2c(C(=O)NC3Cc4ccccc4C3)ccnc12 [Compound 33, N7-indan-2-yl-2-oxazol-2-yl-pyrazolo[1,5-a]pyrimidine-3,7-dicarboxamide] | < 50 |
| COc1cc(C(=O)NC2CC(F)(F)C2)n2nc(C)c(C(N)=O)c2n1 [Compound 41, N7-(3,3-difluorocyclobutyl)-5-methoxy-2-methyl-pyrazolo[1,5-a]pyrimidine-3,7-dicarboxamide] | 500 to 5000 |
